From ChEMBL document CHEMBL4619763 (J Nat Prod, 2020)
Activity calls are given as the source filed them. No cut-off for these calls is given here.

Key:
Rattus norvegicus [1] = assay: Diuretic activity in normotensive Wistar rat assessed as urine conductivity at 0.1 mg/kg, po administered via gavage after 8 hrs (reference value: 19.54 +/- 0.98 mS/cm); type: functional
Rattus norvegicus [2] = assay: Diuretic activity in normotensive Wistar rat assessed as urine conductivity at 1 mg/kg, po administered via gavage after 8 hrs (reference value: 19.54 +/- 0.98 mS/cm); type: functional
Rattus norvegicus [3] = assay: Diuretic activity in normotensive Wistar rat assessed as urinary sodium excretion at 0.01 mg/kg, po administered via gavage after 8 hrs (reference value: 61.82 to 80.81 mmol/L); type: functional
Rattus norvegicus [4] = assay: Diuretic activity in normotensive Wistar rat assessed as urinary potassium excretion at 0.01 mg/kg, po administered via gavage after 8 hrs (reference value: 22.39 to 24.21 mmol/L); type: ADME, organism-based; details: in vivo
Rattus norvegicus [5] = assay: Diuretic activity in normotensive Wistar rat assessed as urinary chloride excretion at 0.1 mg/kg, po administered via gavage after 8 hrs (reference value: 135.10 to 143.70 mmol/L); type: functional
Rattus norvegicus [6] = assay: Diuretic activity in normotensive Wistar rat assessed as urinary chloride excretion at 0.01 mg/kg, ip […] after 8 hrs (reference value: 103.30 +/- 10.25 mmol/L); type: functional
Rattus norvegicus [7] = assay: Diuretic activity in normotensive Wistar rat assessed as urinary chloride excretion at 0.1 mg/kg, ip […] after 8 hrs (reference value: 103.30 +/- 10.25 mmol/L); type: functional
Rattus norvegicus [8] = assay: Diuretic activity in normotensive Wistar rat assessed as urinary calcium excretion at 0.01 mg/kg, po administered via gavage after 8 hrs (reference value: 5.93 to 6.87 mg/dl); type: functional
Rattus norvegicus [9] = assay: Diuretic activity in normotensive Wistar rat assessed as urinary calcium excretion at 0.1 mg/kg, […] administered via gavage after 8 hrs (reference value: 5.28 +/- 0.09 mg/dl); type: functional
Rattus norvegicus [10] = assay: Diuretic activity in normotensive Wistar rat assessed as urinary calcium excretion at 1 mg/kg, ip […] after 8 hrs (reference value: 5.28 +/- 0.09 mg/dl); type: functional
Rattus norvegicus [11] = assay: Diuretic activity in normotensive Wistar rat assessed as urine pH at 0.1 mg/kg, po administered via gavage after 8 hrs in presence of furosemide (reference value: 6.14 to 6.21); type: functional
Rattus norvegicus [12] = assay: Diuretic activity in normotensive Wistar rat assessed as urine pH at 0.1 mg/kg, po administered via gavage after 8 hrs in presence of atropine (reference value: 6.14 to 6.21); type: functional
Rattus norvegicus [13] = assay: Diuretic activity in normotensive Wistar rat assessed as urine conductivity at 0.1 mg/kg, po administered via gavage after 8 hrs in presence of hydrochlorothiazide (reference value: 19.54 +/- 0.98 mS/cm); type: functional
Rattus norvegicus [14] = assay: Diuretic activity in normotensive Wistar rat assessed as urine conductivity at 0.1 mg/kg, po administered via gavage after 8 hrs in presence of furosemide (reference value: 19.54 +/- 0.98 mS/cm); type: functional
Rattus norvegicus [15] = assay: Diuretic activity in normotensive Wistar rat assessed as urine conductivity at 0.1 mg/kg, po administered via gavage after 8 hrs in presence of amiloride (reference value: 19.54 +/- 0.98 mS/cm); type: functional
Rattus norvegicus [16] = assay: Diuretic activity in normotensive Wistar rat assessed as urinary sodium excretion at 0.1 mg/kg, po administered via gavage after 8 hrs in presence of hydrochlorothiazide (reference value: 61.82 to 80.81 mmol/L); type: functional
Rattus norvegicus [17] = assay: Diuretic activity in normotensive Wistar rat assessed as urinary sodium excretion at 0.1 mg/kg, po administered via gavage after 8 hrs in presence of atropine (reference value: 61.82 to 80.81 mmol/L); type: functional
Rattus norvegicus [18] = assay: Diuretic activity in normotensive Wistar rat assessed as urinary sodium excretion at 0.1 mg/kg, po administered via gavage after 8 hrs in presence of L-NAME (reference value: 61.82 to 80.81 mmol/L); type: functional
Rattus norvegicus [19] = assay: Diuretic activity in normotensive Wistar rat assessed as urinary potassium excretion at 0.1 mg/kg, po administered via gavage after 8 hrs in presence of L-NAME (reference value: 22.39 to 24.21 mmol/L); type: ADME, organism-based; details: in vivo
Rattus norvegicus [20] = assay: Diuretic activity in normotensive Wistar rat assessed as urinary chloride excretion at 0.1 mg/kg, po administered via gavage after 8 hrs in presence of furosemide (reference value: 135.10 to 143.70 mmol/L); type: functional
Rattus norvegicus [21] = assay: Diuretic activity in normotensive Wistar rat assessed as urinary chloride excretion at 0.1 mg/kg, po administered via gavage after 8 hrs in presence of amiloride (reference value: 135.10 to 143.70 mmol/L); type: functional
Rattus norvegicus [22] = assay: Diuretic activity in normotensive Wistar rat assessed as urinary chloride excretion at 0.1 mg/kg, po administered via gavage after 8 hrs in presence of L-NAME (reference value: 135.10 to 143.70 mmol/L); type: functional
Rattus norvegicus [23] = assay: Diuretic activity in normotensive Wistar rat assessed as urinary calcium excretion at 0.1 mg/kg, po administered via gavage after 8 hrs in presence of furosemide (reference value: 5.93 to 6.87 mg/dl); type: functional
Rattus norvegicus [24] = assay: Diuretic activity in normotensive Wistar rat assessed as urinary calcium excretion at 0.1 mg/kg, po administered via gavage after 8 hrs in presence of amiloride (reference value: 5.93 to 6.87 mg/dl); type: functional
Rattus norvegicus [25] = assay: Diuretic activity in normotensive Wistar rat assessed as urinary calcium excretion at 0.1 mg/kg, po administered via gavage after 8 hrs in presence of atropine (reference value: 5.93 to 6.87 mg/dl); type: functional
Rattus norvegicus [26] = assay: Diuretic activity in spontaneous hypertensive Wistar rat assessed as increase in urinary chloride excretion at 0.1 mg/kg, po administered via gavage for 7 days; type: functional, organism-based
Rattus norvegicus [27] = assay: Diuretic activity in spontaneous hypertensive Wistar rat assessed as effect on urinary potassium excretion at 0.1 mg/kg, po administered via gavage for 7 days; type: ADME, organism-based; details: in vivo, 168 h
[28] = Toxicity in spontaneous hypertensive Wistar rat assessed as changes in plasma potassium level at 0.1 mg/kg, po administered for 7 days; type: organism-based; details: in vivo, 168 h
[29] = Toxicity in normotensive Wistar rat assessed as changes in plasma calcium level at 0.1 mg/kg, po administered for 7 days; type: organism-based; details: in vivo, 168 h
[30] = Toxicity in spontaneous hypertensive Wistar rat assessed as changes in plasma AST level at 0.1 mg/kg, po administered for 7 days; type: organism-based; details: in vivo, 168 h
[31] = Toxicity in spontaneous hypertensive Wistar rat assessed as changes in plasma ALT level at 0.1 mg/kg, po administered for 7 days; type: organism-based; details: in vivo, 168 h
[32] = Toxicity in normotensive Wistar rat assessed as changes in plasma uric acid level at 0.1 mg/kg, po administered for 7 days; type: organism-based; details: in vivo, 168 h
[33] = Toxicity in normotensive Wistar rat assessed as changes in urea level in urine at 0.1 mg/kg, po administered for 7 days; type: organism-based; details: in vivo, 168 h
Rattus norvegicus [34] = assay: In vivo antioxidant activity in Wistar rat model of hypertension-induced oxidative stress assessed as reduction in reactive oxygen species generation in renal tissue at 0.1 mg/kg, po administered via gavage for 7 days by DCFH-DA probe based fluorimetric assay; type: functional, organism-based

C[C@@H]1O[C@@H](Oc2c(-c3ccc(O)cc3)oc3cc(O)cc(O)c3c2=O)[C@H](O)[C@H](O)[C@H]1O [AFZELIN]
Activity (Rattus norvegicus [1]): 17.05 - 18.31 mS/cm
Activity (Rattus norvegicus [2]): 17.48 mS/cm
Activity (Rattus norvegicus [3]): 61.35 mmol/L
Activity (Rattus norvegicus [4]): 17.98 mmol/L
Activity (Rattus norvegicus [5]): 186.6 to 231.3 mmol/L
Activity (Rattus norvegicus [6]): 96.18 mmol/L
Activity (Rattus norvegicus [7]): 78.12 mmol/L
Activity (Rattus norvegicus [8]): 5.23 mg/dL
Activity (Rattus norvegicus [9]): 5.51 mg/dL
Activity (Rattus norvegicus [10]): 5.46 mg/dL
pH (Rattus norvegicus [11]): 6.25
pH (Rattus norvegicus [12]): 6.14
Activity (Rattus norvegicus [13]): 19.83 mS/cm
Activity (Rattus norvegicus [14]): 20.62 mS/cm
Activity (Rattus norvegicus [15]): 15.25 mS/cm
Activity (Rattus norvegicus [16]): 113.3 mmol/L
Activity (Rattus norvegicus [17]): 57.23 mmol/L
Activity (Rattus norvegicus [18]): 75.14 mmol/L
Activity (Rattus norvegicus [19]): 14.84 mmol/L
Activity (Rattus norvegicus [20]): 154.7 mmol/L
Activity (Rattus norvegicus [21]): 161.1 mmol/L
Activity (Rattus norvegicus [22]): 336.1 mmol/L
Activity (Rattus norvegicus [23]): 5.36 mg/dL
Activity (Rattus norvegicus [24]): 4.74 mg/dL
Activity (Rattus norvegicus [25]): 4.69 mg/dL
Activity (Rattus norvegicus [26]): Active
Activity (Rattus norvegicus [27]): Non-Toxic
Activity [28]: Non-Toxic
Activity [29]: Non-Toxic
Activity [30]: Non-Toxic
Activity [31]: Non-Toxic
Activity [32]: Non-Toxic
Activity [33]: Non-Toxic
Activity (Rattus norvegicus [34]): Active
